According to patent US20060153894A1, “Multi-compartment delivery system” (priority 2004, published 2006):

Tested on: TNF-α secretion from LPS-stimulated PBMC
Assay: TNF-α secretion from LPS-stimulated PBMC with p38 inhibitor loaded in the outer compartment (ELISA)
Format: cell-based, human
Details: outer compartments loaded with 10.99 ng, 109.9 ng or 1099 ng, 1×10^6 PBMC on inner compartment, LPS 10 ng/ml overnight
Protocol: Outer compartments were made from a composite matrix similar to the one prepared in Example 3. The compartments were loaded with three different amounts (10.99 ng, 109.9 ng, or 1099 ng) of p38 kinase inhibitor (JNJ 3026582, also known as RWJ 67657). The chemical structure of this compound (4-[4-(4-fluorophenyl)-1-(3-phenylpropyl)-5-44-pyridinyl)-1H-imidazol-2-yl]-3-butyn-1-ol) has been previously documented (Wadsworth et al., J. Pharm. Exp. Ther 291:680-687, 1999).
The inner compartments were prepared from a non-woven Vicryl® fibrous matrix fabricated as described in Example 2. Mononuclear cells were freshly isolated from human peripheral blood, counted and adjusted to a final cell number in RPMI-1640 (Invitrogen Life Technologies, Carlsbad, Calif.) with 1% fetal bovine serum (FBS, HyClone, Logan, UT). A total of 1×10^6 cells in a final volume of 50ul were seeded onto the inner compartments.
The two compartments were combined and pre-cultured for 1 hour in a 24-well plate with 0.5 ml culture medium. A stimulus of LPS (lipopolysaccharide) (10 ng/ml; Sigma, St. Louis, Mo.) was added to each well and incubated overnight at 37° C., 5%CO2. Supernatant from each well was collected and analyzed for TNF-α content using a standard commercial ELISA kit (R&D Systems, Minneapolis, Minn.). […]

OCCC#Cc1nc(-c2ccc(F)cc2)c(-c2ccncc2)n1CCCc1ccccc1 [RWJ 67657]
inhibition of TNF-α secretion: dose dependent inhibition
inhibition of TNF-α secretion (listed as p38 inhibitor): inhibited in a dose-dependent manner
